Experimental findings from publication PMC12563821 (International Journal of Molecular Sciences, 2025) are described below.

The subject of one series is T1, Sirt1.
T1 construct: includes amino acids 1–747 (C-terminal); His-tag (N); purchased Reaction Biology Corporation (Malvern, PA, USA), in-house enzyme of the contract laboratory; host or cells: E. coli
Nature of the series: Fluorescence-based Sirt1 subtype selectivity assay (Reaction Biology). The settings on record: 50 µM inhibitor, duplicate, relative to no-inhibitor control. The class given is biochemical. The protocol: (§1) The determination of the inhibitory potency and corresponding subtype selectivity of the synthesized hybrid candidates was performed by Reaction Biology Cooperation (Malvern, PA, USA) using a fluorescence-based assay (Table 1).
(§2) Sirtuin assays. The biological activity of the test substances against the respective sirtuin enzymes was evaluated by means of a fluorescence-based assay performed by Reaction Biology Corporation (Malvern, PA, USA). The sirtuin enzymes used in the assays were all obtained from in-house sources at Reaction Biology Corporation (Malvern, PA, USA). Sirt1, with accession number NM_012238, includes amino acids 1–747 (C-terminal) and is tagged with an N-terminal His-tag. Sirt1 was expressed in E. coli and purified to greater than 85% as confirmed by SDS-PAGE and is supplied as a solution in 50 mM Tris/HCl (pH 7.5), 100 mM NaCl, and 10% glycerol (v/v). Sirt2 (accession number NM_012237), comprising amino acids 50–389 (C-terminal), features an N-terminal His-tag and was expressed in E. coli and finally purified to over 90% by SDS-PAGE. Sirt2 is provided in a buffer containing 50 mM Tris/HCl (pH 7.5), 500 mM NaCl, 1 mM TCEP, and 10% glycerol (v/v). Sirt3, with accession number NM_012239.3, spans amino acids 101–399 and is tagged with an N-terminal GST and expressed in E. coli and purified to greater than 85% purity by SDS-PAGE. Sirt3 is supplied in 50 mM Tris/HCl (pH 7.5), 500 mM NaCl, and 10% glycerol (v/v). Sirt5 (accession number NM_012241), consisting of amino acids 37–310 (C-terminal) and tagged with an N-terminal His-tag, was expressed in E. coli, purified to greater than 95% purity by SDS-PAGE and delivered as a solution in 50 mM Tris/HCl (pH 7.5), 500 mM NaCl, 1 mM TCEP, and 10% glycerol (v/v). All proteins were provided in purified forms for use in the assays. The respective internal assay protocol is outlined in the following: After the test substances (dissolved in DMSO) were incubated with the desired sirtuin enzyme in assay buffer (Tris-HCl, pH = 8) for 10 min at 30 °C, a substrate mixture consisting of a 7-amino-4-methylcoumarin-linked fluorogenic peptide substrate (p53 residues 379–382) and the cofactor NAD^+ was added. After 2 h of incubation at 30 °C, the universal inhibitor nicotinamide was added in excess to completely stop the deacetylation reaction, followed by the addition of a protease-based developer to release 7-amino-4-methylcoumarin, resulting in characteristic fluorescence, which was measured after 1 h at 30 °C (excitation/emission = 360/460). A no-inhibitor control was implemented, serving as a reference for 100% enzyme activity. […] Three individual IC50 values per test compound were calculated from the corresponding three dilution series fluorescence data using sigmoidal curve fitting in Prism 8.0.2 (GraphPad Software, Boston, MA, USA), and these were averaged to determine the mean IC50 value along with the standard deviation. To assess the selectivity against Sirt1, Sirt3, and Sirt5, a 50 µM concentration of the test compound was tested in duplicate, and the inhibitory activity was expressed as the mean of the duplicates in percentage of enzyme activity, including standard deviation, relative to the no-inhibitor control (representative 100% enzyme activity).

Another series has as its system T2, Sirt3.
T2 construct: spans amino acids 101–399; GST (N); purchased Reaction Biology Corporation (Malvern, PA, USA), in-house enzyme of the contract laboratory; host or cells: E. coli
Nature of the series: Fluorescence-based Sirt3 subtype selectivity assay (Reaction Biology). Type of series: biochemical. To be noted: 50 µM inhibitor, duplicate, relative to no-inhibitor control. Here is the method:
as §1, §2

Series [1] in a line: MTT-based cell viability assay. Further details: species or system human. The settings on record: human; HL-60 cells, 24 h incubation, MTT; read-out: IC50 acute cytotoxicity. The protocol: (§3) The SirReal-based Sirt2 inhibitors (FM345, FM352, FM358, FM368, RW-93, RW-95 and RW-99) were tested for potential acute cytotoxicity to human cells in an MTT-based cell viability assay. […] HL-60 cells were treated with the corresponding Sirt2 inhibitors at various concentrations and then incubated for 24 h. […] Representative cell viability results following treatment with RW-93 are shown in Figure S1 of the Supplementary Materials.
(§4) Cell viability assay. The cytotoxicity of the Sirt2 inhibitors was determined using a colorimetric MTT assay following Mosmann’s protocol. HL-60 cells (purchased from DSMZ (German Collection of Microorganisms and Cell Cultures, Deutsche Sammlung von Mikroorganismen und Zellkulturen GmbH, Braunschweig, Germany) were cultivated in RPMI medium with 10% fetal bovine serum at 37 °C with 5% CO2 atmosphere. The cells were then seeded in a 96-well plate with a concentration of 9 x 10^4 cells/well and a well volume of 99 µL. The cells were further incubated at 37 °C with 5% CO2 atmosphere for 24 h. The cells were then treated with 1 µL solution of Sirt2 inhibitors in various concentrations, which were prepared from 10 mM or 20 mM DMSO stock solutions. Negative controls were treated with 1 µL DMSO and positive controls with 1 µL of 1% Triton-X solution. Three technical replicates were performed. After incubation for 24 h, 10 µL MTT (5.0 mg/mL in PBS) were added to each well and the cells were incubated at 37 °C with 5% CO2 atmosphere for 2 h. Then 190 µL DMSO were added to each well and the plate shaken at room temperature at 600 rpm for 1 h with light exclusion. The absorbance of the MTT metabolite formazan was measured at 570 nm using the MRX Microplate Reader (Dynex Technologies, Chantilly, VA, USA). The means of the corresponding triplicates were calculated and set in relation to the 1% DMSO negative controls. The data was processed using Prism 8.0.2 (GraphPad Software, Boston, MA, USA) software and a logarithmic sigmoidal curve fitting for the calculation of the respective IC50 values was performed.

The next series deals with HL-60 cells. Nature of the series: MTT-based cell viability assay. Also noted: species or system human. Here is the method:
as §3, §4

The structures appear in SMILES notation. Bounds are passed on as bounds.

What is called IC50 is the concentration that inhibits the measured activity by half. For the compound `Cc1cc(C)nc(SCC(=O)Nc2ncc(COc3ccccc3)s2)n1` [FM345, 2-((4,6-Dimethylpyrimidin-2-yl)thio)-N-(5-(phenoxymethyl)thiazol-2-yl)acetamide], in the series with Sirt1, the “Residual Enzyme Activity [%] ± SD Sirt1” value is 95.6 ± 2.3%. The “Residual Enzyme Activity [%] ± SD Sirt3” value with Sirt3 amounted to 78.8 ± 0.8%. Further, the IC50 at 24 h in series [1] was more than 50 µM.

Take `Cc1cc(C)nc(SCC(=O)Nc2ncc(COc3ccc(NC(=O)c4cccs4)cc3)s2)n1` [FM352, N-(4-((2-(2-((4,6-Dimethylpyrimidin-2-yl)thio)acetamido)thiazol-5-yl)methoxy)phenyl)thiophene-2-carboxamide]: the “Residual Enzyme Activity [%] ± SD Sirt1” value with Sirt1 came out at 101 ± 1%. Moreover, in the series on Sirt3, the “Residual Enzyme Activity [%] ± SD Sirt3” value is recorded as 75.8 ± 5.3%. In addition, in series [1], the IC50 at 24 h was more than 50 µM.

As for `Cc1cc(C)nc(SCC(=O)Nc2ncc(COc3ccc(NC(=O)c4cnn(C)c4)cc3)s2)n1` [FM358, N-(4-((2-(2-((4,6-Dimethylpyrimidin-2-yl)thio)acetamido)thiazol-5-yl)methoxy)-phenyl)-1-methyl-1H-pyrazole-4-carboxamide], the “Residual Enzyme Activity [%] ± SD Sirt1” value with Sirt1 is given as 71.9 ± 0.6%. Moreover, in the series on Sirt3, the “Residual Enzyme Activity [%] ± SD Sirt3” value is on record as 62.5 ± 0.1%. Besides, in series [1], the IC50 at 24 h is more than 50 µM.

In the case of `Cc1cc(C)nc(SCC(=O)Nc2ncc(COc3cccc4ccccc34)s2)n1` [FM368, 2-((4,6-Dimethylpyrimidin-2-yl)thio)-N-(5-((naphthalen-1-yloxy)methyl)thiazol-2-yl)acetamide], the “Residual Enzyme Activity [%] ± SD Sirt1” value in the series with Sirt1 was found to be 88.5 ± 2.7%. Further, the “Residual Enzyme Activity [%] ± SD Sirt3” value with Sirt3 came to 85.0 ± 0.5%. Moreover, in series [1], the IC50 at 24 h is more than 50 µM.

Regarding `Cc1cc(C)nc(SCC(=O)Nc2ncc(COc3ccc(NC(=O)c4cnn(C)c4)c(Br)c3)s2)n1` [RW-93, N-(2-Bromo-4-((2-(2-((4,6-dimethylpyrimidin-2-yl)thio)acetamido)thiazol-5-yl)-methoxy)phenyl)-1-methyl-1H-pyrazole-4-carboxamide], the “Residual Enzyme Activity [%] ± SD Sirt1” value with Sirt1 turned out to be 58.2 ± 0.2%. For the same compound, in the series on Sirt3, the “Residual Enzyme Activity [%] ± SD Sirt3” value was 62.3 ± 1.2%. In addition, the IC50 at 24 h in series [1] is more than 50 µM. For the same compound, the “changes in cell viability relative to DMSO control” value in the series with HL-60 cells (HL-60 cells, MTT, up to 200 µM, three technical replicates) is reported as “No signiﬁcant changes”. For the same compound, the “acute toxicity to human cells” value in the series with HL-60 cells (MTT assay) is “ruled out”.

As to `Cc1cc(C)nc(SCC(=O)Nc2ncc(COc3ccc(NC(=O)c4cnn(C)c4)c(I)c3)s2)n1` [RW-95, N-(4-((2-(2-((4,6-Dimethylpyrimidin-2-yl)thio)acetamido)thiazol-5-yl)methoxy)-2-iodophenyl)-1-methyl-1H-pyrazole-4-carboxamide], the “Residual Enzyme Activity [%] ± SD Sirt1” value in the series with Sirt1 is reported as 60.9 ± 0.7%. In the series on Sirt3, the “Residual Enzyme Activity [%] ± SD Sirt3” value is 64.2 ± 1.2%. In addition, the IC50 at 24 h in series [1] is more than 50 µM.
